Laboratory results as given in patent publication US9365613B2, “Acylated 4-amidino- and -4-guanidinobenzylamines for inhibition of plasma kallikrein” (The Medicines Company (Leipzig) GmbH, priority 2003, dated 2016).

How the values were obtained:
PK = PK (Homo sapiens, UniProt P03952); details: read-out: Ki PK (literature); cited from earlier work
plasma kallikrein (PK) = plasma kallikrein (PK) (Homo sapiens, UniProt P03952); assay: Determining the inhibitory constants: inhibition of PK (substrate Bzl-Pro-Phe-Arg-pNA); format: biochemical; details: Tris buffer pH 8.0, 25° C.; mean of at least three determinations
Chain of plasma kallikrein (PK) (P03952 391-638 limits assumed, species assumed): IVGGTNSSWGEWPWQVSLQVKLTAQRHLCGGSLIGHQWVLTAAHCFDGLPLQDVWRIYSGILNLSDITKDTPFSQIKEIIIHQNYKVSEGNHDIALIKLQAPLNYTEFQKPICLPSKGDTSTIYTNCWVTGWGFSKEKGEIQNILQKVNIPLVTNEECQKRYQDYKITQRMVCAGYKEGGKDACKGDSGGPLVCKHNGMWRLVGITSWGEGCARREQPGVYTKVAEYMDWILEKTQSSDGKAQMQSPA
Chain of plasma kallikrein (PK) (P03952 20-390 partner limits assumed, species assumed): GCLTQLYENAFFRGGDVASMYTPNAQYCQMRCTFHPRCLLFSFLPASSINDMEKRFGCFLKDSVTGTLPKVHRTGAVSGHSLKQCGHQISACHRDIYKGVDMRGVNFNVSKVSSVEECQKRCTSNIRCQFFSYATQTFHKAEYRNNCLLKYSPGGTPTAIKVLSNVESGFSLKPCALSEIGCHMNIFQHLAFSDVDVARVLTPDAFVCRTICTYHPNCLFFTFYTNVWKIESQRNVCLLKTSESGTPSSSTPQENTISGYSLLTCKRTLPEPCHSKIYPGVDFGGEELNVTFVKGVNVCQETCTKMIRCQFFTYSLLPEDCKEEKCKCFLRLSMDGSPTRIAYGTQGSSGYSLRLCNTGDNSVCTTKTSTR
Experimental: (§1) The inhibitory effect for the individual enzymes was determined in analogy with a method which has already been described (Stürzebecher et al., J. Med. Chem. 40, 3091-3099, 1997).
(§2) After 3 min, the reaction was terminated by adding 25 μl of acetic acid (50%) and the absorption at […] was determined using a Microplate Reader (Labsystems iEMS Reader MF). The Ki values were determined, in accordance with Dixon (Biochem. J. 55, 170-171, 1953), by means of linear regression and using a computer program. The Ki values are the mean of at least three determinations.

human factor XIIa = molecular target: T1, human factor XIIa (Homo sapiens, UniProt P00748); assay: Inhibitory constants for factor XIIa (substrate H-D-HHT-Gly-Arg-pNA, Chromozym XII); format: biochemical; details: read-out: Ki F XIIa
T1 construct: purchased Haemochrom Diagnostica GmbH, Essen, Germany
T1 sequence (P00748 373-615 limits assumed, other chains not shown): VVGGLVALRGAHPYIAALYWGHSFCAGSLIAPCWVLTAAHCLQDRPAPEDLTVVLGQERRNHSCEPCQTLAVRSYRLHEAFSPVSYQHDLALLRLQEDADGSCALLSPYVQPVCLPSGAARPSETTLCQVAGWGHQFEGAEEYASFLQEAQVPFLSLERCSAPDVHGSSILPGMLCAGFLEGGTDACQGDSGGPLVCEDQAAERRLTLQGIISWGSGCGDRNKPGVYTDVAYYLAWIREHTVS
Experimental: as §1, §2
(§3) The inhibition of factor XIa and factor XIIa was determined in an analogous manner. When determining the inhibitory constants for human factor XIa (Haemochrom Diagnostica GmbH, Essen, Germany), H-D-Lys(Z)-Pro-Arg-pNA (Chromozym PCa, Roche Diagnostics GmbH, Mannheim, Germany) was used as the substrate.
H-D-HHT-Gly-Arg-pNA (Chromozym XII, Roche Diagnostics GmbH, Mannheim, Germany) was used as the substrate for measuring the inhibitory constants of human factor XIIa (Haemochrom Diagnostica GmbH, Essen, Germany).

human factor XIa = molecular target: T2, human factor XIa (Homo sapiens, UniProt P03951); assay: Inhibitory constants for factor XIa (substrate H-D-Lys(Z)-Pro-Arg-pNA, Chromozym PCa); format: biochemical; details: read-out: Ki F XIa
T2 construct: purchased Haemochrom Diagnostica GmbH, Essen, Germany
T2 sequence (P03951 388-625 limits assumed): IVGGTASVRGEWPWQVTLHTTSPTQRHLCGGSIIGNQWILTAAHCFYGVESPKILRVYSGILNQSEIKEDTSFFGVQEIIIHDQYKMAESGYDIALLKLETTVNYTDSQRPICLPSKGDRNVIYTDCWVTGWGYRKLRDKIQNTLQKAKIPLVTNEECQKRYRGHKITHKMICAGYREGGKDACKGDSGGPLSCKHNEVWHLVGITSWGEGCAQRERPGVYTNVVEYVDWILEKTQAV
T2 sequence (P03951 19-387 partner limits assumed): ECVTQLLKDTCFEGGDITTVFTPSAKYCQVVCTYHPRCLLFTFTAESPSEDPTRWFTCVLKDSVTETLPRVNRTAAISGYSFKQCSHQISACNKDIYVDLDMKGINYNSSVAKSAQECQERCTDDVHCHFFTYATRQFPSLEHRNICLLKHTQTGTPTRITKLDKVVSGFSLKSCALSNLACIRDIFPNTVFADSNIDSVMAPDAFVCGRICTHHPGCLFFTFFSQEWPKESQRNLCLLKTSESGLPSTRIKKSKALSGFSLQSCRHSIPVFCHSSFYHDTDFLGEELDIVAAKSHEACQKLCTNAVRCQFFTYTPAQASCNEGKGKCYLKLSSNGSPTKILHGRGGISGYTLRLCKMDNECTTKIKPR
Experimental: as §1, §2, §3

thrombin = thrombin (UniProt P00735); assay: Inhibitory constants for thrombin; format: biochemical; details: read-out: Ki Thrombin

Chain of PK (P03952 391-638 limits assumed): as the sequence (P03952 391-638 limits assumed, species assumed) above
Chain of PK (P03952 20-390 partner limits assumed): as the sequence (P03952 20-390 partner limits assumed, species assumed) above

Ki (plasma kallikrein (PK)) [nM] | Ki (human factor XIIa) [nM] | Ki (human factor XIa) [nM] | Ki (thrombin) [nM] | Compound | Ki (PK) [nM]
– | – | – | – | CC(=O)N[C@H](Cc1ccccc1)C(=O)N1CCC[C@H]1C(=O)N[C@@H](CCCN=C(N)N)B(O)O [DuP 714, Ac-D-Phe-Pro-boroarginine] | 1.6
75 | 310 | 220 | 59 | N=C(N)NCc1cccc(C[C@@H](NS(=O)(=O)Cc2ccccc2)C(=O)NCC(=O)NCc2ccc(C(=N)N)cc2)c1 [Inhibitor 79] | –
68 | 340 | 490 | 2100 | N=C(N)NCC[C@@H](NS(=O)(=O)Cc1ccccc1)C(=O)NCC(=O)NCc1ccc(C(=N)N)cc1 [Inhibitor 80] | –
74 | 350 | 700 | 1400 | N=C(N)NCCC[C@@H](NS(=O)(=O)Cc1ccccc1)C(=O)NCC(=O)NCc1ccc(C(=N)N)cc1 [Inhibitor 81] | –
100 | 1400 | 330 | 23 | N=C(N)c1ccc(CNC(=O)CNC(=O)[C@@H](CC2CCCCC2)NS(=O)(=O)Cc2ccccc2)cc1 [Inhibitor 82] | –
140 | 380 | 700 | 530 | COC(=O)c1ccc(CS(=O)(=O)N[C@H](Cc2cccc(C(=N)N)c2)C(=O)NCC(=O)NCc2ccc(C(=N)N)cc2)cc1 [Inhibitor 84] | –
220 | 21000 | 400 | 1200 | N=C(N)c1ccc(CNC(=O)[C@H](CCCCNC(=O)COCC(=O)NCCOCCOCCOCCOCCOCCOCCOCCN)NC(=O)[C@@H](CO)NS(=O)(=O)Cc2ccccc2)cc1 [Inhibitor 88] | –
– | – | – | – | N=C(N)NCCCC(C=O)NC(=O)C(Cc1ccccc1)NC(=O)C(Cc1ccccc1)NC(=O)OC12CC3CC(CC(C3)C1)C2 [adamantyloxycarbonyl-D-Phe-Phe-arginal] | 12
– | – | – | – | CC(C)(C)C(NC(=O)OC12CC3CC(CC(C3)C1)C2)C(=O)NC(Cc1ccccc1)C(=O)NC(CCCNC(=N)N)C(=O)C(F)(F)F [adamantyloxycarbonyl-D-tert-butylglycine-Phe-Arg-CF3] | 2
